According to ChEMBL document CHEMBL4364344, “Design, synthesis and evaluation of activity and pharmacokinetic profile of new derivatives of xanthone and piperazine in the central nervous system” (Bioorg Med Chem Lett, 2019):

What was measured:
[1] = molecular target: Beta-2 adrenergic receptor (Homo sapiens) (UniProt P07550); experiment: Displacement of [3H](-)CGP 12177 from recombinant human beta 2 receptor at 10 uM after 120 mins by radiometric scintillation analysis relative to control
[2] = molecular target: D(2) dopamine receptor (Homo sapiens) (UniProt P14416); experiment: Displacement of [3H]methyl-spiperone from recombinant human D2S dopamine receptor at 10 uM after 60 mins by radiometric scintillation analysis relative to control
[3] = Mutagenicity in Salmonella typhimurium TA100 at 5 ug/plate preincubated for 20 mins followed by addition of top agar and measured after 48 hrs by Ames test; type: toxicity; details: salmonella enterica subsp. enterica serovar typhimurium
[4] = molecular target: T1, 5-hydroxytryptamine receptor 2B (Homo sapiens, UniProt P41595); experiment: Displacement of [125I](+/-)DOI from recombinant human 5-HT2B receptor at 10 uM after 60 mins by radiometric scintillation analysis relative to control
T1 sequence (P41595 whole entry): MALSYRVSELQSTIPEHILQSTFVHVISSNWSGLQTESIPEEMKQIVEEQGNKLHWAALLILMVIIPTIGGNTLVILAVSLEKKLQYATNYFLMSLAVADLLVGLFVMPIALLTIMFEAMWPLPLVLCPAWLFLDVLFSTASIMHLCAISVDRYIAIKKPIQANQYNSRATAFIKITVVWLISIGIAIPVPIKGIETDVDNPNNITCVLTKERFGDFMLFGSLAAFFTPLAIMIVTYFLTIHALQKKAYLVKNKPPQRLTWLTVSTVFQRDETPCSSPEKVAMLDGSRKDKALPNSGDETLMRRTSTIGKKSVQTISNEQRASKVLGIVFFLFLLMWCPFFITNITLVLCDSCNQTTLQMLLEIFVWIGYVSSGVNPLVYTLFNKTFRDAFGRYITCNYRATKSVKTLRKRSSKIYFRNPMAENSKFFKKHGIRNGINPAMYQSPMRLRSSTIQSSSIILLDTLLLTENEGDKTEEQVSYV

[5] = molecular target: Sodium-dependent serotonin transporter (Homo sapiens) (UniProt P31645); experiment: Displacement of [3H]imipramine recombinant human 5-HT transporter at 10 uM after 60 mins by radiometric scintillation analysis relative to control
[6] = molecular target: Histamine H2 receptor (Homo sapiens) (UniProt P25021); experiment: Displacement of [125I]APT from recombinant human H2 histamine receptor at 10 uM after 120 mins by radiometric scintillation counting analysis relative to control
Sequence of Histamine H2 receptor (Homo sapiens) (P25021 whole entry): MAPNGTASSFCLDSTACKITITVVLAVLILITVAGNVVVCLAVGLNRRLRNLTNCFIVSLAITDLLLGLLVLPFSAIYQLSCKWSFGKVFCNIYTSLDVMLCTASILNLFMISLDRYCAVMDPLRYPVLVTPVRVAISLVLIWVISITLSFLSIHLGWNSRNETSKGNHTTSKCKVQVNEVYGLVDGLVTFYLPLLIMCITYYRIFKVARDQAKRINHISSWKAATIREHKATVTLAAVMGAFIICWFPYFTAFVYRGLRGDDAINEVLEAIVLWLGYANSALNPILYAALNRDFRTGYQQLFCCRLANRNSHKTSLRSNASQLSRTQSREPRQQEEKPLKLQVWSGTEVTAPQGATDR

[7] = molecular target: Serotonin 3 (5-HT3) receptor (Homo sapiens) (UniProt P46098+A5X5Y0+O95264+Q70Z44+Q8WXA8); experiment: Displacement of [3H]BRL 43694 from recombinant human 5-HT3 receptor at 10 uM after 120 mins by radiometric scintillation analysis relative to control; type: protein-complex assay
[8] = molecular target: Neurotensin receptor type 1 (Homo sapiens) (UniProt P30989); experiment: Displacement of [125I]Tyr3-neurotensin from human NSTR1 receptor at 10 uM after 60 mins by radiometric scintillation analysis relative to control
[9] = molecular target: 5-hydroxytryptamine receptor 7 (Homo sapiens) (UniProt P34969); experiment: Displacement of [3H]LSD from recombinant human 5-HT7 receptor at 10 uM after 120 mins by radiometric scintillation analysis relative to control
[10] = species: Rattus norvegicus; experiment: Displacement of [3H]GABA from rat brain GABA receptor at 10 uM after 30 mins by radiometric scintillation analysis relative to control
[11] = molecular target: Prostaglandin E2 receptor EP4 subtype (Homo sapiens) (UniProt P35408); experiment: Displacement of [3H]PGE2 from recombinant human EP4 receptor at 10 uM after 120 mins by radiometric scintillation analysis relative to control
Sequence of Prostaglandin E2 receptor EP4 subtype (Homo sapiens) (P35408 whole entry): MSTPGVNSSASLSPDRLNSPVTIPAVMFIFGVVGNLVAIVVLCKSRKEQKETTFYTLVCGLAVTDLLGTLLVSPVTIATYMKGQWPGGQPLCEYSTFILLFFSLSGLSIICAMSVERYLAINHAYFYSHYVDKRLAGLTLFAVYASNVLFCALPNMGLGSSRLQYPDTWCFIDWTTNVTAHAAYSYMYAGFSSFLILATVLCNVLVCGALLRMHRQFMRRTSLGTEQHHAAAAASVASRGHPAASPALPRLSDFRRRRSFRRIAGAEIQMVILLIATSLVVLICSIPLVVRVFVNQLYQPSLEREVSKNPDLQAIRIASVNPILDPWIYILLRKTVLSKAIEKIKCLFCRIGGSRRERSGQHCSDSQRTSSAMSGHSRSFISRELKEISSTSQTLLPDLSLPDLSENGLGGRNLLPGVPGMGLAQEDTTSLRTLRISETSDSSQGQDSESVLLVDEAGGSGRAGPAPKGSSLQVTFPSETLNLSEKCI

[12] = Cmax in CD-1 mouse brain at 5 mg/kg, ip measured up to 480 mins by LC/ESI-MS/MS analysis; type: ADME, organism-based; parameters: dose 5 mg/kg, route intraperitoneal
[13] = molecular target: Neuropeptide Y receptor type 2 (Homo sapiens) (UniProt P49146); experiment: Displacement of [125I]peptide YY from human Y2 receptor at 10 uM after 60 mins by radiometric scintillation analysis relative to control
[14] = molecular target: Muscarinic acetylcholine receptor M3 (Homo sapiens) (UniProt P20309); experiment: Displacement of [3H]4-DAMP from recombinant human M3 receptor at 10 uM after 60 mins by radiometric scintillation analysis relative to control
Sequence of Muscarinic acetylcholine receptor M3 (Homo sapiens) (P20309 whole entry, looked up): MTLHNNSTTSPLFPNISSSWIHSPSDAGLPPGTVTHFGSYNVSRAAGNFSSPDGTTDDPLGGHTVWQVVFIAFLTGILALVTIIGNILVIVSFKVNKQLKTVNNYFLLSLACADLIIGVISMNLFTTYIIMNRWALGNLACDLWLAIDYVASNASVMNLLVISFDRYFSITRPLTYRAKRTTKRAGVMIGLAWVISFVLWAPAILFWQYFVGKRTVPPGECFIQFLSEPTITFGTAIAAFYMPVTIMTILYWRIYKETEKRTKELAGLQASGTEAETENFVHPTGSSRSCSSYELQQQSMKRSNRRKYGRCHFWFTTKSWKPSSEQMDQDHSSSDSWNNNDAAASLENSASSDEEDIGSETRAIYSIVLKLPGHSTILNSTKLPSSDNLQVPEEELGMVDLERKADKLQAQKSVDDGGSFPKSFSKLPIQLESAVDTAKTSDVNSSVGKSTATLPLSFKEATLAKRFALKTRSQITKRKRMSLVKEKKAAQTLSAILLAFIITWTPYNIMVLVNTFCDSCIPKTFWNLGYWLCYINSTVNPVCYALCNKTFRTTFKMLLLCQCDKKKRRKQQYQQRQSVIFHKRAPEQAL

[15] = molecular target: B2 bradykinin receptor (Homo sapiens) (UniProt P30411); experiment: Displacement of [3H]bradykinin from recombinant human B2 receptor at 10 uM after 60 mins by radiometric scintillation analysis relative to control
Sequence of B2 bradykinin receptor (Homo sapiens) (P30411 whole entry): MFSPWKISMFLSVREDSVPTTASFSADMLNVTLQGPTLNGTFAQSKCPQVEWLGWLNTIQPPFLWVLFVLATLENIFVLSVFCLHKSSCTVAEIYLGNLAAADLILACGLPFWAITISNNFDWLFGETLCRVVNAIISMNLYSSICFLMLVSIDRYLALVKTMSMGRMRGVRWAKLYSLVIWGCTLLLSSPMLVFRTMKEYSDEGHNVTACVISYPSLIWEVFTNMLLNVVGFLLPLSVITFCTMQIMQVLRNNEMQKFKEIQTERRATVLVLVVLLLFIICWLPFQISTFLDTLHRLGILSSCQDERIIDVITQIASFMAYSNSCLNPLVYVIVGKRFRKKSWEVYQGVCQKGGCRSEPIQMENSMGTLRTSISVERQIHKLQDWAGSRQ

[16] = molecular target: Small conductance calcium-activated potassium channel (Rattus norvegicus) (UniProt P70604+P70606+P70605); experiment: Displacement of [125I]apamin from rat brain SKCa at 10 uM after 60 mins by radiometric scintillation analysis relative to control
[17] = molecular target: Sodium-dependent dopamine transporter (Homo sapiens) (UniProt Q01959); experiment: Displacement of [3H]BTCP recombinant human dopamine transporter at 10 uM after 120 mins by radiometric scintillation analysis relative to control
Sequence of Sodium-dependent dopamine transporter (Homo sapiens) (Q01959 whole entry): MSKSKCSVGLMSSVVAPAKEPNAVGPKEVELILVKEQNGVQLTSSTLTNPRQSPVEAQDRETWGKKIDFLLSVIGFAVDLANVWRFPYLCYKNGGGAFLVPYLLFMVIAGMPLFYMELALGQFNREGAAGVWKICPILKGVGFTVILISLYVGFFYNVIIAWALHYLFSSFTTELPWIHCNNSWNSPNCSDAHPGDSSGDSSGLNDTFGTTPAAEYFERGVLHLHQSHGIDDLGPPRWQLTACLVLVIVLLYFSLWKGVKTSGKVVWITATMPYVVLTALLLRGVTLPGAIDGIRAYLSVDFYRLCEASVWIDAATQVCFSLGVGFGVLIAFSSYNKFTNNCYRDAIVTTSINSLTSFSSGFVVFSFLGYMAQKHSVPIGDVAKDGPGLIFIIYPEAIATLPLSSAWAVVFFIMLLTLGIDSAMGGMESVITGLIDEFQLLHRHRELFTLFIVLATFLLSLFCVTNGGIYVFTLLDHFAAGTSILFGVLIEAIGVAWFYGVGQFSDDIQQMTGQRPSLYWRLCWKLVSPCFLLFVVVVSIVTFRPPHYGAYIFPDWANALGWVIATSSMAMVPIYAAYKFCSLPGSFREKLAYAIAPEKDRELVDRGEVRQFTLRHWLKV

[18] = molecular target: Muscarinic acetylcholine receptor M1 (Homo sapiens) (UniProt P11229); experiment: Displacement of [3H]pirenzepine from recombinant human M1 receptor at 10 uM after 60 mins by radiometric scintillation analysis relative to control
Sequence of Muscarinic acetylcholine receptor M1 (Homo sapiens) (P11229 whole entry): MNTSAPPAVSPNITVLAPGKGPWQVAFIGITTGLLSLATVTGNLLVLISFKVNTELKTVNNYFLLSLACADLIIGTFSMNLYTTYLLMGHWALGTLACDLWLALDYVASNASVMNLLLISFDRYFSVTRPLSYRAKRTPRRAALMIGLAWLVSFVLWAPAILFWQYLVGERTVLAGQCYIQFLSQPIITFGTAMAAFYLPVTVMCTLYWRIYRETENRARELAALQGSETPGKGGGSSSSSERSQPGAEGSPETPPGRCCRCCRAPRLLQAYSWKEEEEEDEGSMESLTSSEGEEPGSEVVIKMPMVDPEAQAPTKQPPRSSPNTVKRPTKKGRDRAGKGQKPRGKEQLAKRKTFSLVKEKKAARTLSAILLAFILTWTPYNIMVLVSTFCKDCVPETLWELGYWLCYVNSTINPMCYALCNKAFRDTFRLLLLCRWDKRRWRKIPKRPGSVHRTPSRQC

[19] = Tmax in CD-1 mouse brain at 5 mg/kg, ip measured up to 480 mins by LC/ESI-MS/MS analysis; type: ADME, organism-based
[20] = molecular target: Cannabinoid receptor 1 (Homo sapiens) (UniProt P21554); experiment: Displacement of [3H]CP 55940 from recombinant human CB1 receptor at 10 uM by radiometric scintillation analysis relative to control
Sequence of Cannabinoid receptor 1 (Homo sapiens) (P21554 whole entry): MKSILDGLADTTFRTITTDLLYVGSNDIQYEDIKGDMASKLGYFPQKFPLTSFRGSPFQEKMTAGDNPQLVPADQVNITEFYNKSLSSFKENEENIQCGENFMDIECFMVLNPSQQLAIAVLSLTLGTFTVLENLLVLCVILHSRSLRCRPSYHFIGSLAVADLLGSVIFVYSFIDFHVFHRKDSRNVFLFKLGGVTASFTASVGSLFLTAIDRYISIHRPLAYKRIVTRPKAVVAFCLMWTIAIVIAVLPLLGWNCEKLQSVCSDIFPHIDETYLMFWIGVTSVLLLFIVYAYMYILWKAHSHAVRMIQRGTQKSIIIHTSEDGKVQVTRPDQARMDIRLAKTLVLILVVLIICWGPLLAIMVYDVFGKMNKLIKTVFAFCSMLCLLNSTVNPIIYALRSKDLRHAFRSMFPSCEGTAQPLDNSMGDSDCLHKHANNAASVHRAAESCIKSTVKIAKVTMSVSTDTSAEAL

[21] = molecular target: T1, 5-hydroxytryptamine receptor 2B; experiment: Displacement of [125I](+/-)DOI from recombinant human 5-HT2B receptor after 60 mins by radiometric scintillation analysis
[22] = tested on: Mus musculus; experiment: Anxiolytic activity in albino Swiss CD-1 mouse assessed as increase in number of punished crossings at 5 mg/kg, ip administered 30 mins prior to test by four-plate test relative to control; type: functional
[23] = AUC (0 to t) in CD-1 mouse plasma at 5 mg/kg, ip measured up to 480 mins by LC/ESI-MS/MS analysis; type: ADME, organism-based; parameters: dose 5 mg/kg, time < 8 hr, route intraperitoneal
[24] = molecular target: Histamine H1 receptor (Homo sapiens) (UniProt P35367); experiment: Displacement of [3H]pyrilamine from recombinant human H1 histamine receptor at 10 uM after 60 mins by radiometric scintillation analysis relative to control
[25] = molecular target: 5-hydroxytryptamine receptor 6 (Homo sapiens) (UniProt P50406); experiment: Displacement of [3H]LSD from recombinant human 5-HT6 receptor at 10 uM after 120 mins by radiometric scintillation analysis relative to control
Sequence of 5-hydroxytryptamine receptor 6 (Homo sapiens) (P50406 whole entry): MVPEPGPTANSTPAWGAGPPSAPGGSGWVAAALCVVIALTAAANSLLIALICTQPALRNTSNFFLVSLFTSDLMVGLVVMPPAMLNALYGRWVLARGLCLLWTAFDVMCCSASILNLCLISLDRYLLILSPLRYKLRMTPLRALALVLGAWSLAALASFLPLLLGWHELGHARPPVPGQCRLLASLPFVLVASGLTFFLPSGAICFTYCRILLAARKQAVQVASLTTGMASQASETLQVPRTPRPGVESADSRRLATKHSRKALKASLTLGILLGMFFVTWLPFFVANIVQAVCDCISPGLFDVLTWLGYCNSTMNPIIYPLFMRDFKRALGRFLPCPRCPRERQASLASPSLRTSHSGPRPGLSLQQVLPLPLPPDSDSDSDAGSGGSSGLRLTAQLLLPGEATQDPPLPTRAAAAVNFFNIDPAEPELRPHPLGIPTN

[26] = Mutagenicity in Salmonella typhimurium TA102 at 5 ug/plate preincubated for 20 mins followed by addition of top agar and measured after 48 hrs by Ames test; type: toxicity; details: salmonella enterica subsp. enterica serovar typhimurium
[27] = MRT in CD-1 mouse plasma at 5 mg/kg, ip measured up to 480 mins by LC/ESI-MS/MS analysis; type: ADME, organism-based
[28] = Drug metabolism in mouse liver microsomes assessed as metabolite formation by measuring retention time at 20 uM after 30 to 60 mins in presence of NADP by UPLC/MS analysis; type: ADME, Microsome
[29] = Ratio of drug uptake in CD-1 mouse brain to plasma at 5 mg/kg, ip measured up to 480 mins by LC/ESI-MS/MS analysis; type: ADME, organism-based; details: read-out: BPR
[30] = tested on: Mus musculus; experiment: Anxiolytic activity in albino Swiss CD-1 mouse assessed as increase in number of punished crossings at 10 mg/kg, ip administered 30 mins prior to test by four-plate test relative to control; type: functional
[31] = Terminal half life in CD-1 mouse brain at 5 mg/kg, ip measured up to 480 mins by LC/ESI-MS/MS analysis; type: ADME, organism-based; details: read-out: beta t1/2
[32] = Mutagenicity in Salmonella typhimurium TA98 at 5 ug/plate preincubated for 20 mins followed by addition of top agar and measured after 48 hrs by Ames test; type: toxicity; details: salmonella enterica subsp. enterica serovar typhimurium
[33] = molecular target: Galanin receptor type 2 (Homo sapiens) (UniProt O43603); experiment: Displacement of [125I]galanin from recombinant human GAL2 receptor at 10 uM after 120 mins by radiometric scintillation analysis relative to control
Sequence of Galanin receptor type 2 (Homo sapiens) (O43603 whole entry): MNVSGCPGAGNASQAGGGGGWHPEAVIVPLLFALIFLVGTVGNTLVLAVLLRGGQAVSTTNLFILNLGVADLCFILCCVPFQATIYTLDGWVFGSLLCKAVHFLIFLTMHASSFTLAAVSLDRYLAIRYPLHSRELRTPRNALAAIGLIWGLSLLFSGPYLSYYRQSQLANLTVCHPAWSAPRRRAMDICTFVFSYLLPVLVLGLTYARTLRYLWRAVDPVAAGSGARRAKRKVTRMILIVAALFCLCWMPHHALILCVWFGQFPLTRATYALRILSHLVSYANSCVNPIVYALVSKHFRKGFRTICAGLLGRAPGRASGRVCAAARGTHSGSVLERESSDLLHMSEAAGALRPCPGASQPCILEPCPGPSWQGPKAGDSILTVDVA

Cl.Cl.O=c1c2cc(Cl)ccc2oc2ccc(CN3CCN(CCOCCO)CC3)cc12
inhibition [1]: 3.7% | inhibition [2]: 27.4% | Activity_index [3]: 0.66 | inhibition [4]: 76.8% | inhibition [5]: 24.8% | inhibition [6]: 10.3% | inhibition [7]: 5.5% | inhibition [8]: -3.5% | inhibition [9]: 5.3% | inhibition [10]: 11.7% | inhibition [11]: 10.9% | Cmax [12]: 18600 ng/mL | inhibition [13]: 3.1% | inhibition [14]: 50.1% | inhibition [15]: -7% | inhibition [16]: 8.5% | inhibition [17]: 28.7% | inhibition [18]: 52.3% | Tmax [19]: 30 min | inhibition [20]: -0.1% | Ki [21]: 2900 nM | Activity [22]: 66.6% | AUC(0-t) at 8 h [23]: 5490 ng·h/mL | inhibition [24]: 43.1% | inhibition [25]: 2.5% | Activity_index [26]: 0.93 | MRT [27]: 2.59 h | Retention_time [28]: 4.49 min | Kp at 8 h [29]: 9.79 | Activity [30]: 50.1% | half-life [31]: 173 min | Activity_index [32]: 1.03 | inhibition [33]: 1.4%
